Reference: patent publication US20250222145A1, “TRACER COMPOSITION FOR RADIOACTIVE PET DIAGNOSIS, INTERMEDIATE THEREOF, AND PRODUCTION METHOD THEREOF” (OSAKA UNIVERSITY, priority 2021, published 2025)

How the values were obtained:
brain tumor (C6 glioma) [1] = experiment: PET imaging of tumor accumulation in C6 glioma model mouse; type: in vivo
Experimental: (§1) ^18F-FAMT-OMe synthesized in the Example 1 was administered to a model mouse of brain tumor (C6 glioma), and accumulation properties thereof were observed Specifically, a solution containing about 10 MBq of ^18F-FAMT-OMe was intravenously injected into the mouse, and PET images were acquired at regular intervals.

[2] = changes over time in accumulation in the kidney (SUV, PET); type: in vivo, mouse; settings: FIG. 3, SUV based on the radiation dose of blood
Experimental: as §1
In addition, FIG. 3 (left drawing) illustrates a result of measuring changes over time in the accumulation of the ^18F-FAMT-OMe in the kidney on the basis of a standardized uptake value (SUV) value based on the radiation dose of blood. As a comparative example, a result of a case using the ^18F-FAMT is illustrated in FIG. 3 (right drawing). In addition, FIG. 4 is a graph comparing the maximum value of SUV (SUVmax) with the existing tracer compounds ^18F-FBPA and ^18F-FAMT.

brain tumor (C6 glioma) [3] = experiment: distribution (% ID/g) in the mouse body; type: in vivo; settings: FIG. 5; except kidney and pancreas
From the text: Further, FIG. 5 is a graph representing a distribution (% ID/g) of the ^18F-FAMT-OMe of the present invention in the mouse body.

[4] = radiochemical purity over time after production; type: physicochemical; settings: after 5 hours of production, FIG. 1
From the text: A result of measuring radiochemical purity of the obtained compound 3 is illustrated in FIG. 1.

accumulation in the kidney over time (SUV) [2]: excreted from the kidney over time
stability of radiochemical purity [4]: purity was maintained even after 5 hours
Compound: COc1ccc(CC(C)(N)C(=O)O)cc1[18F] (stereo not drawn) [Compound 3]
accumulation at a tumor site (PET images) (brain tumor (C6 glioma) [1]; about 10 MBq intravenously, model mouse of brain tumor (C6 glioma), FIG. 2): clear and high accumulation at a tumor site
washing out from tumor site (brain tumor (C6 glioma) [1]; in comparison with conventional ^18F-FAMT, FIG. 2): washing out was significantly gentle
accumulation one hour after administration (brain tumor (C6 glioma) [1]; one hour after administration, versus conventional ^18F-FAMT): better than that of the conventional ^18F-FAMT
distribution (% ID/g): tumor versus normal organs and blood (brain tumor (C6 glioma) [3]): significantly higher accumulation at a tumor site
